Data taken from the NIST ThermoML archive (doi:10.1021/acs.jced.6b00430).

Experiment: xn = mol fraction of the nth substance listed
Conditions: 100 kPa, Liquid; for mass density: Vibrating tube method; for electrical conductivity: Alternating current cell with electrodes; for viscosity: Concentric cylinders viscometry

O=[PH](O)O [phosphonic acid] + CN(C)C=O
Conditions	electrical conductivity [S/m]	mass density [kg/m3]	viscosity [mPa·s]
318.15 K, x1 = 0.421	–	1170.67	–
318.15 K, x1 = 0.4479	–	1189.61	–
318.15 K, x1 = 0.4707	–	1204.42	–
318.15 K, x1 = 0.493	–	1218.59	–
318.15 K, x1 = 0.5074	–	1227.51	–
318.15 K, x1 = 0.5196	–	1237.92	–
318.15 K, x1 = 0.5429	–	1253.45	–
318.15 K, x1 = 0.5724	–	1275.06	–
318.15 K, x1 = 0.5925	–	1289.1	–
318.15 K, x1 = 0.6245	–	1311.81	–
318.15 K, x1 = 0.6554	–	1339.01	–
318.15 K, x1 = 0.6753	–	1347.93	–
318.15 K, x1 = 0.6923	–	1362.29	–
318.15 K, x1 = 0.7142	–	1382.56	–
318.15 K, x1 = 0.725	–	1385.03	–
318.15 K, x1 = 0.7592	–	1416.55	–
318.15 K, x1 = 0.7694	–	1427.77	–
318.15 K, x1 = 0.7845	–	1434.51	–
328.15 K, x1 = 0.0911	–	962.58	–
328.15 K, x1 = 0.1181	0.0815	–	–
328.15 K, x1 = 0.1365	–	987.46	–
328.15 K, x1 = 0.1798	–	1011.93	–
328.15 K, x1 = 0.1829	–	1013.72	–
328.15 K, x1 = 0.1973	–	–	1.92
328.15 K, x1 = 0.2293	–	1040.86	–
328.15 K, x1 = 0.2507	–	–	2.88
328.15 K, x1 = 0.291	–	1078.19	–
328.15 K, x1 = 0.2984	0.173	–	4.07
328.15 K, x1 = 0.3115	–	–	4.29
328.15 K, x1 = 0.3298	0.183	1102.77	–
328.15 K, x1 = 0.3442	–	1111.65	–
328.15 K, x1 = 0.3491	–	–	6.02
328.15 K, x1 = 0.3712	–	1129.07	–
328.15 K, x1 = 0.3937	–	1143.78	–
328.15 K, x1 = 0.3968	0.275	–	8.65
328.15 K, x1 = 0.3988	–	–	8.5
328.15 K, x1 = 0.4107	–	1155.04	9.62
328.15 K, x1 = 0.421	–	1161.92	–
328.15 K, x1 = 0.4479	0.316	1180.89	12.3
328.15 K, x1 = 0.4707	–	1195.74	–
328.15 K, x1 = 0.493	–	1211.17	–
328.15 K, x1 = 0.4968	–	–	16.2
328.15 K, x1 = 0.5074	–	1221.28	16
328.15 K, x1 = 0.5196	–	1229.86	–
328.15 K, x1 = 0.5429	–	1246.5	–
328.15 K, x1 = 0.5503	–	–	22
328.15 K, x1 = 0.5724	–	1267.84	–
328.15 K, x1 = 0.5761	0.512	–	24.9
328.15 K, x1 = 0.5925	–	1282.63	–
328.15 K, x1 = 0.5993	–	–	25.5
328.15 K, x1 = 0.6245	–	1306.4	–
328.15 K, x1 = 0.6261	–	–	29.5
328.15 K, x1 = 0.6316	0.71	–	30.1
328.15 K, x1 = 0.6478	–	–	32.2
328.15 K, x1 = 0.6554	0.802	1330.73	32
328.15 K, x1 = 0.682	1.07	–	34.4
328.15 K, x1 = 0.7142	–	1375.29	37.1
328.15 K, x1 = 0.725	–	1383.85	–
328.15 K, x1 = 0.7592	–	1411.1	–
328.15 K, x1 = 0.7694	1.77	1419.7	39.8
328.15 K, x1 = 0.7832	1.91	–	40.5
328.15 K, x1 = 0.7845	–	1430.74	–
338.15 K, x1 = 0.0911	–	954.96	–
338.15 K, x1 = 0.1365	–	979.11	–
338.15 K, x1 = 0.1798	–	1003.68	–
338.15 K, x1 = 0.1829	–	1004.95	–
338.15 K, x1 = 0.1973	–	–	1.67
338.15 K, x1 = 0.2293	–	1032.82	–
338.15 K, x1 = 0.2507	–	–	2.45
338.15 K, x1 = 0.291	–	1068.59	–
338.15 K, x1 = 0.2984	0.212	–	3.49
338.15 K, x1 = 0.3115	–	–	3.66
338.15 K, x1 = 0.3298	0.226	1093.82	–
338.15 K, x1 = 0.3442	–	1102.06	–
338.15 K, x1 = 0.3491	–	–	5.02
338.15 K, x1 = 0.3712	–	1119.72	–
338.15 K, x1 = 0.3937	–	1133.99	–
338.15 K, x1 = 0.3968	0.351	–	7
338.15 K, x1 = 0.3988	–	–	6.98
338.15 K, x1 = 0.4107	–	1155.74	7.75
338.15 K, x1 = 0.421	–	1160.23	–
338.15 K, x1 = 0.4479	0.356	1172.2	9.91
338.15 K, x1 = 0.4707	–	1187.28	–
338.15 K, x1 = 0.493	–	1201.35	–
338.15 K, x1 = 0.4968	–	–	12.7
338.15 K, x1 = 0.5074	–	1210.34	11.6
338.15 K, x1 = 0.5196	–	1220.86	–
338.15 K, x1 = 0.5429	–	1236.41	–
338.15 K, x1 = 0.5503	–	–	17.2
338.15 K, x1 = 0.5724	–	1258.27	–
338.15 K, x1 = 0.5761	0.642	–	18.7
338.15 K, x1 = 0.5925	–	1272.25	–
338.15 K, x1 = 0.5993	–	–	19.2
338.15 K, x1 = 0.6245	–	1295.1	–
338.15 K, x1 = 0.6261	–	–	22.6
338.15 K, x1 = 0.6316	0.891	–	22.3
338.15 K, x1 = 0.6478	–	–	23.8
338.15 K, x1 = 0.6554	1.06	1322.46	23.6
338.15 K, x1 = 0.6753	–	1331.43	–
338.15 K, x1 = 0.682	1.39	–	25.2
338.15 K, x1 = 0.6923	–	1345.85	–
338.15 K, x1 = 0.7142	–	1374.38	27
338.15 K, x1 = 0.725	–	1368.62	–
338.15 K, x1 = 0.7592	–	1400.4	–
338.15 K, x1 = 0.7694	2.29	1411.68	28.6
338.15 K, x1 = 0.7832	2.42	–	29.1
338.15 K, x1 = 0.7845	–	1422.74	–
348.15 K, x1 = 0.0911	–	945.43	–
348.15 K, x1 = 0.1365	–	969.77	–
348.15 K, x1 = 0.1798	–	994.4	–
348.15 K, x1 = 0.1829	–	995.9	–
348.15 K, x1 = 0.2293	–	1023.58	–
348.15 K, x1 = 0.291	–	1059.58	–
348.15 K, x1 = 0.3298	–	1084.14	–
348.15 K, x1 = 0.3442	–	1093.18	–
348.15 K, x1 = 0.3712	–	1110.71	–
348.15 K, x1 = 0.3937	–	1125.23	–
348.15 K, x1 = 0.4107	–	1147	–
348.15 K, x1 = 0.421	–	1150.66	–
348.15 K, x1 = 0.4479	–	1158.49	–
348.15 K, x1 = 0.4707	–	1177.52	–
348.15 K, x1 = 0.493	–	1192.77	–
348.15 K, x1 = 0.5074	–	1201.8	–
348.15 K, x1 = 0.5196	–	1210.75	–
348.15 K, x1 = 0.5429	–	1227.92	–
348.15 K, x1 = 0.5724	–	1254.23	–
348.15 K, x1 = 0.5925	–	1263.87	–
348.15 K, x1 = 0.6245	–	1286.78	–
348.15 K, x1 = 0.6554	–	1310.01	–
348.15 K, x1 = 0.6753	–	1324.98	–
348.15 K, x1 = 0.6923	–	1337.69	–
348.15 K, x1 = 0.7142	–	1366.2	–
348.15 K, x1 = 0.725	–	1373	–
348.15 K, x1 = 0.7592	–	1394.6	–
348.15 K, x1 = 0.7694	–	1401.02	–
348.15 K, x1 = 0.7845	–	1410.65	–
